Laboratory results taken from ChEMBL document CHEMBL4196087 (Eur J Med Chem, 2018).
In brackets after ≈: the same amount, converted by molar mass.

How the values were obtained:
[1] = system: MOLT-4; assay: Growth inhibition of human MOLT4 cells at 10^-5 M incubated for 48 hrs by sulforhodamine B assay relative to control; type: functional; conditions: MOLT-4, 48 h, read-out: GI
[2] = system: SF-539; assay: Growth inhibition of human SF539 cells at 10^-5 M incubated for 48 hrs by sulforhodamine B assay relative to control; type: functional; conditions: SF-539, 48 h, read-out: GI
[3] = system: HOP-92; assay: Growth inhibition of human HOP92 cells at 10^-5 M incubated for 48 hrs by sulforhodamine B assay relative to control; type: functional; conditions: HOP-92, 48 h, read-out: GI
[4] = system: MDA-MB-468; assay: Growth inhibition of human MDA-MB-468 cells at 10^-5 M incubated for 48 hrs by sulforhodamine B assay relative to control; type: functional; conditions: MDA-MB-468, 48 h, read-out: GI
[5] = system: MCF7; assay: Growth inhibition of human MCF7 cells at 10^-5 M incubated for 48 hrs by sulforhodamine B assay relative to control; type: functional; conditions: MCF7, 48 h, read-out: GI
[6] = system: HL-60; assay: Antiproliferative activity against human HL60 cells after 48 hrs by MTT assay; type: functional, cell-based; conditions: HL-60, 48 h
[7] = system: CCRF-CEM; assay: Growth inhibition of human CCRF-CEM cells at 10^-5 M incubated for 48 hrs by sulforhodamine B assay relative to control; type: functional; conditions: read-out: GI
[8] = system: MDA-MB-231; assay: Growth inhibition of human MDA-MB-231 cells at 10^-5 M incubated for 48 hrs by sulforhodamine B assay relative to control; type: functional; conditions: MDA-MB-231, 48 h, read-out: GI
[9] = system: SK-MEL-5; assay: Growth inhibition of human SK-MEL-5 cells at 10^-5 M incubated for 48 hrs by sulforhodamine B assay relative to control; type: functional; conditions: SK-MEL-5, 48 h, read-out: GI
[10] = system: Bacillus subtilis; assay: Antibacterial activity against Bacillus subtilis at 37 degC measured after 24 hrs by CLSI M7-A4 protocol based method; type: functional
[11] = system: SNB-75; assay: Growth inhibition of human SNB75 cells at 10^-5 M incubated for 48 hrs by sulforhodamine B assay relative to control; type: functional; conditions: SNB-75, 48 h, read-out: GI
[12] = system: HOP-62; assay: Growth inhibition of human HOP62 cells at 10^-5 M incubated for 48 hrs by sulforhodamine B assay relative to control; type: functional; conditions: HOP-62, 48 h, read-out: GI
[13] = system: HL-60(TB); assay: Growth inhibition of human HL-60(TB) cells at 10^-5 M incubated for 48 hrs by sulforhodamine B assay relative to control; type: functional; conditions: HL-60, 48 h, read-out: GI
[14] = system: NCI-H226; assay: Growth inhibition of human NCI-H226 cells at 10^-5 M incubated for 48 hrs by sulforhodamine B assay relative to control; type: functional; conditions: NCI-H226, 48 h, read-out: GI
[15] = system: PC-3; assay: Growth inhibition of human PC3 cells at 10^-5 M incubated for 48 hrs by sulforhodamine B assay relative to control; type: functional; conditions: PC-3, 48 h, read-out: GI
[16] = system: IGROV-1; assay: Growth inhibition of human IGROV1 cells at 10^-5 M incubated for 48 hrs by sulforhodamine B assay relative to control; type: functional; conditions: IGROV-1, 48 h, read-out: GI
[17] = system: K562; assay: Growth inhibition of human K562 cells at 10^-5 M incubated for 48 hrs by sulforhodamine B assay relative to control; type: functional; conditions: K562, 48 h, read-out: GI
[18] = system: T47D; assay: Growth inhibition of human T47D cells at 10^-5 M incubated for 48 hrs by sulforhodamine B assay relative to control; type: functional; conditions: read-out: GI
[19] = system: Pseudomonas aeruginosa; assay: Antibacterial activity against Pseudomonas aeruginosa at 37 degC measured after 24 hrs by CLSI M7-A4 protocol based method; type: functional
[20] = system: UO-31; assay: Growth inhibition of human UO31 cells at 10^-5 M incubated for 48 hrs by sulforhodamine B assay relative to control; type: functional; conditions: UO-31, 48 h, read-out: GI
[21] = system: A498; assay: Growth inhibition of human A498 cells at 10^-5 M incubated for 48 hrs by sulforhodamine B assay relative to control; type: functional; conditions: A498, 48 h, read-out: GI
[22] = system: LOX IMVI; assay: Growth inhibition of human LOXIMVI cells at 10^-5 M incubated for 48 hrs by sulforhodamine B assay relative to control; type: functional; conditions: read-out: GI
[23] = system: RPMI-8226; assay: Growth inhibition of human RPMI8226 cells at 10^-5 M incubated for 48 hrs by sulforhodamine B assay relative to control; type: functional; conditions: RPMI-8226, 48 h, read-out: GI
[24] = system: HL-60; assay: Antiproliferative activity against human HL60 cells after 48 hrs by SRB assay; type: functional; conditions: HL-60, 48 h, read-out: LC50 (the source's name)
[25] = system: Escherichia coli; assay: Antibacterial activity against Escherichia coli at 37 degC measured after 24 hrs by agar disc diffusion method; type: functional
[26] = system: Bacillus subtilis; assay: Antibacterial activity against Bacillus subtilis at 37 degC measured after 24 hrs by agar disc diffusion method; type: functional
[27] = system: HL-60; assay: Potency index, ratio of doxorubicin IC50 to compound IC50 for antiproliferative activity against human HL60 cells; type: functional
[28] = system: Staphylococcus aureus; assay: Antibacterial activity against Staphylococcus aureus at 37 degC measured after 24 hrs by agar disc diffusion method; type: functional
[29] = system: Pseudomonas aeruginosa; assay: Antibacterial activity against Pseudomonas aeruginosa at 37 degC measured after 24 hrs by agar disc diffusion method; type: functional
[30] = system: SK-OV-3; assay: Growth inhibition of human SKOV3 cells at 10^-5 M incubated for 48 hrs by sulforhodamine B assay relative to control; type: functional; conditions: SK-OV-3, 48 h, read-out: GI

Compound	inhibition of growth at 10 µM [1] [%]	inhibition of growth at 10 µM [3] [%]	inhibition of growth at 10 µM [12] [%]	inhibition of growth at 10 µM [15] [%]	inhibition of growth at 10 µM [18] [%]	inhibition of growth at 10 µM [20] [%]	inhibition of growth at 10 µM [22] [%]	diameter of the inhibition zone (DIZ) [25] [mm]	diameter of the inhibition zone (DIZ) [26] [mm]	diameter of the inhibition zone (DIZ) [28] [mm]	diameter of the inhibition zone (DIZ) [29] [mm]	inhibition of growth at 10 µM [30] [%]	also measured
O=C(CN1CCN(c2cc3c(cc2F)c(=O)c(C(=O)O)cn3C2CC2)CC1)N/N=C/c1c[nH]c2ccccc12	24.6	< 20	< 20	< 20	< 20	28.3	< 20	31	37	31	33		inhibition of growth at 10 µM [2]: < 20%; inhibition of growth at 10 µM [4]: < 20%; inhibition of growth at 10 µM [5]: 27.1%; IC50 [6]: 1.55 µM; inhibition of growth at 10 µM [7]: 54.4%; inhibition of growth at 10 µM [8]: 20.9%; inhibition of growth at 10 µM [9]: < 20%; MIC [10]: 58 µg/mL (≈ 109 µM); inhibition of growth at 10 µM [11]: < 20%; inhibition of growth at 10 µM [13]: 43%; inhibition of growth at 10 µM [14]: < 20%; inhibition of growth at 10 µM [16]: < 20%; inhibition of growth at 10 µM [17]: < 20%; MIC [19]: 30 µg/mL (≈ 56.5 µM); inhibition of growth at 10 µM [21]: < 20%; inhibition of growth at 10 µM [23]: < 20%; CC50 [24]: 15.9 µM; Ratio IC50 [27]: 5.7
O=C(O)c1cn(C2CC2)c2cc(N3CCN(Cc4nnc(S)o4)CC3)c(F)cc2c1=O	23	< 20	< 20	23.4	< 20	< 20	< 20	25	29	24	27	< 20	
O=C(CSc1nnc(CN2CCN(c3cc4c(cc3F)c(=O)c(C(=O)O)cn4C3CC3)CC2)o1)c1ccccc1	< 20	< 20	< 20	23.9	< 20	20.3	25.3					< 20	
